According to PubChem BioAssay (NCI):
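Exposure lasted 48 hours, with cells grown in 96-well plates and compounds tested at five concentrations. TGI: concentration producing complete growth inhibition.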

What was measured:
Experiment in all cases: NCI tumour cell line growth inhibition, 48 h
SK-MEL-28 melanoma = test system: SK-MEL-28 melanoma
UACC-62 melanoma = test system: UACC-62 melanoma
OVCAR-8 ovarian = test system: OVCAR-8 ovarian
SNB-19 CNS = test system: SNB-19 CNS
MALME-3M melanoma = test system: MALME-3M melanoma
SN12C renal = test system: SN12C renal
SK-MEL-2 melanoma = test system: SK-MEL-2 melanoma
K-562 leukemia = test system: K-562 leukemia
RXF-631 renal = test system: RXF-631 renal
COLO 205 colon = test system: COLO 205 colon
EKVX NSCLC = test system: EKVX NSCLC
HOP-62 NSCLC = test system: HOP-62 NSCLC
IGROV1 ovarian = test system: IGROV1 ovarian
HT29 colon = test system: HT29 colon
M14 melanoma = test system: M14 melanoma
LXFL 529 NSCLC = test system: LXFL 529 NSCLC
OVCAR-4 ovarian = test system: OVCAR-4 ovarian
DMS 273 small cell lung = test system: DMS 273 small cell lung
SW-620 colon = test system: SW-620 colon
HCC-2998 colon = test system: HCC-2998 colon
HCT-116 colon = test system: HCT-116 colon
DLD-1 colon = test system: DLD-1 colon
NCI-H522 lung = test system: NCI-H522 lung
HOP-92 NSCLC = test system: HOP-92 NSCLC
UO-31 renal = test system: UO-31 renal
ACHN renal = test system: ACHN renal
OVCAR-5 ovarian = test system: OVCAR-5 ovarian
DMS 114 small cell lung = test system: DMS 114 small cell lung
OVCAR-3 ovarian = test system: OVCAR-3 ovarian
786-0 renal = test system: 786-0 renal
KM12 colon = test system: KM12 colon
NCI-H460 lung = test system: NCI-H460 lung
TK-10 renal = test system: TK-10 renal
SNB-78 CNS = test system: SNB-78 CNS
SF-295 CNS = test system: SF-295 CNS
MOLT-4 leukemia = test system: MOLT-4 leukemia
SK-MEL-5 melanoma = test system: SK-MEL-5 melanoma
U251 CNS = test system: U251 CNS
SF-539 CNS = test system: SF-539 CNS
UACC-257 melanoma = test system: UACC-257 melanoma
RPMI-8226 leukemia = test system: RPMI-8226 leukemia
SF-268 CNS = test system: SF-268 CNS
KM20L2 colon = test system: KM20L2 colon
SNB-75 CNS = test system: SNB-75 CNS
NCI-H23 lung = test system: NCI-H23 lung
HCT-15 colon = test system: HCT-15 colon
M19-MEL melanoma = test system: M19-MEL melanoma
CCRF-CEM leukemia = test system: CCRF-CEM leukemia
SK-OV-3 ovarian = test system: SK-OV-3 ovarian
A549 NSCLC = test system: A549 NSCLC
A498 renal = test system: A498 renal
LOX IMVI melanoma = test system: LOX IMVI melanoma
XF 498 CNS = test system: XF 498 CNS
CAKI-1 renal = test system: CAKI-1 renal
RXF 393 renal = test system: RXF 393 renal
HL-60(TB) leukemia = test system: HL-60(TB) leukemia

Cc1cc2c(C=O)[nH]nc2c(C#N)c1C
TGI (SK-MEL-28 melanoma): > 100 µM
TGI (UACC-62 melanoma): > 100 µM
TGI (OVCAR-8 ovarian): > 100 µM
TGI (SNB-19 CNS): > 100 µM
TGI (MALME-3M melanoma): > 100 µM
TGI (SN12C renal): 78.6 µM
TGI (SK-MEL-2 melanoma): > 100 µM
TGI (K-562 leukemia): > 100 µM
TGI (RXF-631 renal): > 100 µM
TGI (COLO 205 colon): > 100 µM
TGI (EKVX NSCLC): > 100 µM
TGI (HOP-62 NSCLC): > 100 µM
TGI (IGROV1 ovarian): > 100 µM
TGI (HT29 colon): > 100 µM
TGI (M14 melanoma): > 100 µM
TGI (LXFL 529 NSCLC): > 100 µM
TGI (OVCAR-4 ovarian): > 100 µM
TGI (DMS 273 small cell lung): > 100 µM
TGI (SW-620 colon): > 100 µM
TGI (HCC-2998 colon): > 100 µM
TGI (HCT-116 colon): > 100 µM
TGI (DLD-1 colon): > 100 µM
TGI (NCI-H522 lung): 22.7 µM
TGI (HOP-92 NSCLC): 99.4 µM
TGI (UO-31 renal): > 100 µM
TGI (ACHN renal): > 100 µM
TGI (OVCAR-5 ovarian): > 100 µM
TGI (DMS 114 small cell lung): 99.3 µM
TGI (OVCAR-3 ovarian): > 100 µM
TGI (786-0 renal): > 100 µM
TGI (KM12 colon): > 100 µM
TGI (NCI-H460 lung): > 100 µM
TGI (TK-10 renal): > 100 µM
TGI (SNB-78 CNS): > 100 µM
TGI (SF-295 CNS): > 100 µM
TGI (MOLT-4 leukemia): > 100 µM
TGI (SK-MEL-5 melanoma): > 100 µM
TGI (U251 CNS): > 100 µM
TGI (SF-539 CNS): 61.4 µM
TGI (UACC-257 melanoma): > 100 µM
TGI (RPMI-8226 leukemia): > 100 µM
TGI (SF-268 CNS): > 100 µM
TGI (KM20L2 colon): > 100 µM
TGI (SNB-75 CNS): 40.9 µM
TGI (NCI-H23 lung): > 100 µM
TGI (HCT-15 colon): > 100 µM
TGI (M19-MEL melanoma): > 100 µM
TGI (CCRF-CEM leukemia): > 100 µM
TGI (SK-OV-3 ovarian): > 100 µM
TGI (A549 NSCLC): > 100 µM
TGI (A498 renal): > 100 µM
TGI (LOX IMVI melanoma): > 100 µM

CC12CCC(C)(c3cc(O)c(O)cc31)c1cc(O)c(O)cc12
TGI (SK-MEL-28 melanoma): 34.1 µM
TGI (UACC-62 melanoma): 36.2 µM
TGI (OVCAR-8 ovarian): 57.9 µM
TGI (SNB-19 CNS): 30.2 µM
TGI (MALME-3M melanoma): 45.2 µM
TGI (SN12C renal): 48.6 µM
TGI (SK-MEL-2 melanoma): > 100 µM
TGI (K-562 leukemia): 29.5 µM
TGI (RXF-631 renal): 55.6 µM
TGI (COLO 205 colon): 30 µM
TGI (EKVX NSCLC): 56.3 µM
TGI (HOP-62 NSCLC): 67.8 µM
TGI (IGROV1 ovarian): 40.4 µM
TGI (XF 498 CNS): 34 µM
TGI (HT29 colon): 33.2 µM
TGI (M14 melanoma): 36 µM
TGI (LXFL 529 NSCLC): 22.2 µM
TGI (OVCAR-4 ovarian): 28.7 µM
TGI (DMS 273 small cell lung): 37.5 µM
TGI (SW-620 colon): 40.9 µM
TGI (HCC-2998 colon): 33.6 µM
TGI (DLD-1 colon): 45.7 µM
TGI (CAKI-1 renal): 23.6 µM
TGI (NCI-H522 lung): 6.38 µM
TGI (HOP-92 NSCLC): 25.4 µM
TGI (UO-31 renal): 43.5 µM
TGI (ACHN renal): 32.5 µM
TGI (OVCAR-5 ovarian): 48.1 µM
TGI (DMS 114 small cell lung): 31.1 µM
TGI (OVCAR-3 ovarian): 32.6 µM
TGI (786-0 renal): 27.9 µM
TGI (KM12 colon): 32.7 µM
TGI (NCI-H460 lung): 35.7 µM
TGI (TK-10 renal): 40.3 µM
TGI (SNB-78 CNS): 39.2 µM
TGI (SF-295 CNS): 46.8 µM
TGI (MOLT-4 leukemia): 42.5 µM
TGI (SK-MEL-5 melanoma): 36.4 µM
TGI (RXF 393 renal): 31.3 µM
TGI (UACC-257 melanoma): 29.8 µM
TGI (RPMI-8226 leukemia): 30 µM
TGI (SF-268 CNS): 42.9 µM
TGI (KM20L2 colon): 39.2 µM
TGI (SNB-75 CNS): 52.5 µM
TGI (NCI-H23 lung): 75.5 µM
TGI (HCT-15 colon): 29.3 µM
TGI (M19-MEL melanoma): 31.6 µM
TGI (HL-60(TB) leukemia): 13.1 µM
TGI (CCRF-CEM leukemia): 11.1 µM
TGI (SK-OV-3 ovarian): 36.7 µM
TGI (A549 NSCLC): 94.4 µM
TGI (LOX IMVI melanoma): 35.4 µM
